± gives the expanded uncertainty stated by the source. Values belong to the molecule of their own block, whether it stands above or below them.
Tests used:
[1] = 298.15 K; 101 kPa; Liquid
[2] = refractive index (Na D-line) (dimensionless); conditions: 298.15 K; 101.33 kPa; Liquid
[3] = xn = mol fraction of the nth substance listed; conditions: 298.15 K, 101 kPa, Liquid
[4] = refractive index (Na D-line) (dimensionless); xn = mol fraction of the nth substance listed; conditions: 298.15 K, 101 kPa, Liquid

Structure (SMILES): CCCCn1cc[n+](C)c1.F[B-](F)(F)F [1-butyl-3-methylimidazolium tetrafluoroborate]
- mass density [1]: 1192.78 ± 0.71 kg/m3
- refractive index [2]: 1.41831 ± 0.00066

Structure (SMILES): CCCCn1cc[n+](C)c1.F[B-](F)(F)F [1-butyl-3-methylimidazolium tetrafluoroborate] + CO
- mass density ([3]; x2 = 0): 1192.78 ± 0.71 kg/m3
- mass density ([3]; x2 = 0.0517): 1188.58 ± 0.68 kg/m3
- mass density ([3]; x2 = 0.104): 1183.87 ± 0.66 kg/m3
- mass density ([3]; x2 = 0.1995): 1174.09 ± 0.62 kg/m3
- mass density ([3]; x2 = 0.2975): 1162.14 ± 0.57 kg/m3
- mass density ([3]; x2 = 0.3993): 1146.82 ± 0.52 kg/m3
- mass density ([3]; x2 = 0.5002): 1127.34 ± 0.48 kg/m3
- mass density ([3]; x2 = 0.599): 1102.37 ± 0.42 kg/m3
- mass density ([3]; x2 = 0.6994): 1067.86 ± 0.35 kg/m3
- mass density ([3]; x2 = 0.7997): 1016.59 ± 0.26 kg/m3
- mass density ([3]; x2 = 0.9): 934.6 ± 0.29 kg/m3
- mass density ([3]; x2 = 0.9501): 872.82 ± 0.37 kg/m3
- refractive index ([4]; x2 = 0): 1.41831 ± 0.00066
- refractive index ([4]; x2 = 0.0517): 1.41844 ± 0.00066
- refractive index ([4]; x2 = 0.104): 1.41726 ± 0.00066
- refractive index ([4]; x2 = 0.1995): 1.41454 ± 0.00066
- refractive index ([4]; x2 = 0.2975): 1.41296 ± 0.00065
- refractive index ([4]; x2 = 0.3993): 1.41485 ± 0.00065
- refractive index ([4]; x2 = 0.5002): 1.41652 ± 0.00065
- refractive index ([4]; x2 = 0.599): 1.41435 ± 0.00065
- refractive index ([4]; x2 = 0.6994): 1.40537 ± 0.00065
- refractive index ([4]; x2 = 0.7997): 1.39145 ± 0.00064
- refractive index ([4]; x2 = 0.9): 1.37496 ± 0.00064
- refractive index ([4]; x2 = 0.9501): 1.36221 ± 0.00064

Structure (SMILES): CCCCn1cc[n+](C)c1.F[B-](F)(F)F [1-butyl-3-methylimidazolium tetrafluoroborate] + COC(=O)OC
- mass density ([3]; x2 = 0): 1192.78 ± 0.71 kg/m3
- mass density ([3]; x2 = 0.051): 1191.17 ± 0.69 kg/m3
- mass density ([3]; x2 = 0.1014): 1189.24 ± 0.67 kg/m3
- mass density ([3]; x2 = 0.1987): 1184.98 ± 0.64 kg/m3
- mass density ([3]; x2 = 0.2999): 1179.76 ± 0.6 kg/m3
- mass density ([3]; x2 = 0.4012): 1173.39 ± 0.57 kg/m3
- mass density ([3]; x2 = 0.5): 1165.72 ± 0.54 kg/m3
- mass density ([3]; x2 = 0.6005): 1155.89 ± 0.5 kg/m3
- mass density ([3]; x2 = 0.7007): 1143.06 ± 0.46 kg/m3
- mass density ([3]; x2 = 0.8003): 1125.52 ± 0.41 kg/m3
- mass density ([3]; x2 = 0.9): 1100.22 ± 0.35 kg/m3
- refractive index ([4]; x2 = 0): 1.41831 ± 0.00066
- refractive index ([4]; x2 = 0.051): 1.4176 ± 0.00066
- refractive index ([4]; x2 = 0.1014): 1.41675 ± 0.00066
- refractive index ([4]; x2 = 0.1987): 1.41501 ± 0.00066
- refractive index ([4]; x2 = 0.2999): 1.41282 ± 0.00065
- refractive index ([4]; x2 = 0.4012): 1.41049 ± 0.00065
- refractive index ([4]; x2 = 0.5): 1.40796 ± 0.00065
- refractive index ([4]; x2 = 0.6005): 1.40459 ± 0.00065
- refractive index ([4]; x2 = 0.7007): 1.39931 ± 0.00064
- refractive index ([4]; x2 = 0.8003): 1.39196 ± 0.00064
- refractive index ([4]; x2 = 0.9): 1.38162 ± 0.00064

Structure (SMILES): CCOS(=O)(=O)[O-].CCn1cc[n+](C)c1 [1-ethyl-3-methylimidazolium ethyl sulfate]
- mass density [1]: 1236.33 ± 0.8 kg/m3
- refractive index [2]: 1.47908 ± 0.00066

Structure (SMILES): CCOS(=O)(=O)[O-].CCn1cc[n+](C)c1 [1-ethyl-3-methylimidazolium ethyl sulfate] + CO
- mass density ([3]; x2 = 0): 1236.33 ± 0.8 kg/m3
- mass density ([3]; x2 = 0.0487): 1232.01 ± 0.77 kg/m3
- mass density ([3]; x2 = 0.0977): 1227.32 ± 0.75 kg/m3
- mass density ([3]; x2 = 0.1978): 1216.77 ± 0.7 kg/m3
- mass density ([3]; x2 = 0.2989): 1203.48 ± 0.65 kg/m3
- mass density ([3]; x2 = 0.3991): 1186.7 ± 0.6 kg/m3
- mass density ([3]; x2 = 0.4991): 1165.38 ± 0.55 kg/m3
- mass density ([3]; x2 = 0.5993): 1137.34 ± 0.48 kg/m3
- mass density ([3]; x2 = 0.7002): 1098.94 ± 0.4 kg/m3
- mass density ([3]; x2 = 0.7999): 1043.62 ± 0.31 kg/m3
- mass density ([3]; x2 = 0.9002): 953.54 ± 0.27 kg/m3
- mass density ([3]; x2 = 0.9502): 884.35 ± 0.36 kg/m3
- refractive index ([4]; x2 = 0): 1.47908 ± 0.00066
- refractive index ([4]; x2 = 0.0487): 1.47873 ± 0.00066
- refractive index ([4]; x2 = 0.0977): 1.47637 ± 0.00066
- refractive index ([4]; x2 = 0.1978): 1.47035 ± 0.00066
- refractive index ([4]; x2 = 0.2989): 1.46618 ± 0.00065
- refractive index ([4]; x2 = 0.3991): 1.46462 ± 0.00065
- refractive index ([4]; x2 = 0.4991): 1.46284 ± 0.00065
- refractive index ([4]; x2 = 0.5993): 1.45585 ± 0.00065
- refractive index ([4]; x2 = 0.7002): 1.43992 ± 0.00065
- refractive index ([4]; x2 = 0.7999): 1.41722 ± 0.00064
- refractive index ([4]; x2 = 0.9002): 1.39225 ± 0.00064
- refractive index ([4]; x2 = 0.9502): 1.37316 ± 0.00064

Structure (SMILES): CCOS(=O)(=O)[O-].CCn1cc[n+](C)c1 [1-ethyl-3-methylimidazolium ethyl sulfate] + COC(=O)OC
- mass density ([3]; x2 = 0): 1236.33 ± 0.8 kg/m3
- mass density ([3]; x2 = 0.0502): 1233.17 ± 0.77 kg/m3
- mass density ([3]; x2 = 0.0999): 1229.81 ± 0.75 kg/m3
- mass density ([3]; x2 = 0.1987): 1223.27 ± 0.71 kg/m3
- mass density ([3]; x2 = 0.2999): 1215.47 ± 0.67 kg/m3
- mass density ([3]; x2 = 0.3994): 1206.15 ± 0.63 kg/m3
- mass density ([3]; x2 = 0.5006): 1194.57 ± 0.59 kg/m3
- mass density ([3]; x2 = 0.5999): 1180.67 ± 0.55 kg/m3
- mass density ([3]; x2 = 0.7001): 1163.11 ± 0.5 kg/m3
- refractive index ([4]; x2 = 0): 1.47908 ± 0.00066
- refractive index ([4]; x2 = 0.0502): 1.47687 ± 0.00066
- refractive index ([4]; x2 = 0.0999): 1.47443 ± 0.00066
- refractive index ([4]; x2 = 0.1987): 1.46971 ± 0.00066
- refractive index ([4]; x2 = 0.2999): 1.46385 ± 0.00065
- refractive index ([4]; x2 = 0.3994): 1.45729 ± 0.00065
- refractive index ([4]; x2 = 0.5006): 1.44906 ± 0.00065
- refractive index ([4]; x2 = 0.5999): 1.43953 ± 0.00065
- refractive index ([4]; x2 = 0.7001): 1.42848 ± 0.00065

Structure (SMILES): COC(=O)OC [dimethyl carbonate]
- mass density [1]: 1063.28 ± 0.28 kg/m3
- refractive index [2]: 1.36647 ± 0.00064

Results, then the molecule that gave them:

- mass density ([3]; x1 = 1): 1063.28 ± 0.28 kg/m3
- refractive index ([4]; x1 = 1): 1.36647 ± 0.00064
Structure (SMILES): COC(=O)OC [dimethyl carbonate] + CCCCn1cc[n+](C)c1.F[B-](F)(F)F

- mass density ([3]; x1 = 1): 1063.28 ± 0.28 kg/m3
- refractive index ([4]; x1 = 1): 1.36647 ± 0.00064
Structure (SMILES): COC(=O)OC [dimethyl carbonate] + CCOS(=O)(=O)[O-].CCn1cc[n+](C)c1

- mass density ([3]; x1 = 0.0501): 814.35 ± 0.45 kg/m3
- mass density ([3]; x1 = 0.0997): 838.96 ± 0.41 kg/m3
- mass density ([3]; x1 = 0.2008): 882.51 ± 0.36 kg/m3
- mass density ([3]; x1 = 0.3003): 918.19 ± 0.31 kg/m3
- mass density ([3]; x1 = 0.4002): 948.52 ± 0.27 kg/m3
- mass density ([3]; x1 = 0.5005): 974.63 ± 0.24 kg/m3
- mass density ([3]; x1 = 0.6004): 997.16 ± 0.2 kg/m3
- mass density ([3]; x1 = 0.7015): 1017.04 ± 0.21 kg/m3
- mass density ([3]; x1 = 0.8012): 1034.29 ± 0.23 kg/m3
- mass density ([3]; x1 = 0.8999): 1049.44 ± 0.26 kg/m3
- mass density ([3]; x1 = 0.9483): 1056.31 ± 0.27 kg/m3
- mass density ([3]; x1 = 1): 1063.28 ± 0.28 kg/m3
- refractive index ([4]; x1 = 0.0501): 1.33071 ± 0.00064
- refractive index ([4]; x1 = 0.0997): 1.33427 ± 0.00064
- refractive index ([4]; x1 = 0.2008): 1.34139 ± 0.00064
- refractive index ([4]; x1 = 0.3003): 1.347 ± 0.00064
- refractive index ([4]; x1 = 0.4002): 1.35162 ± 0.00064
- refractive index ([4]; x1 = 0.5005): 1.35583 ± 0.00064
- refractive index ([4]; x1 = 0.6004): 1.35891 ± 0.00064
- refractive index ([4]; x1 = 0.7015): 1.36093 ± 0.00064
- refractive index ([4]; x1 = 0.8012): 1.36336 ± 0.00064
- refractive index ([4]; x1 = 0.8999): 1.36501 ± 0.00064
- refractive index ([4]; x1 = 0.9483): 1.36566 ± 0.00064
- refractive index ([4]; x1 = 1): 1.36647 ± 0.00064
Structure (SMILES): COC(=O)OC [dimethyl carbonate] + CO

- mass density [1]: 786.72 ± 0.49 kg/m3
- refractive index [2]: 1.32668 ± 0.00064
Structure (SMILES): CO [methanol]

- mass density ([3]; x1 = 1): 786.72 ± 0.49 kg/m3
- refractive index ([4]; x1 = 1): 1.32668 ± 0.00064
Structure (SMILES): CO [methanol] + CCCCn1cc[n+](C)c1.F[B-](F)(F)F

- mass density ([3]; x1 = 1): 786.72 ± 0.49 kg/m3
- refractive index ([4]; x1 = 1): 1.32668 ± 0.00064
Structure (SMILES): CO [methanol] + CCOS(=O)(=O)[O-].CCn1cc[n+](C)c1

- mass density ([3]; x2 = 0): 786.72 ± 0.49 kg/m3
- refractive index ([4]; x2 = 0): 1.32668 ± 0.00064
Structure (SMILES): CO [methanol] + COC(=O)OC
